Test results reported in EP1116715A1, “Tetramic acid derivatives useful in medicines and foodstuffs” (priority 2000, dated 2001).
≈ marks a conversion by molar mass, not a printed value.

Tests used:
Type in all cases: cell-based
[1] = tested on: Lactobacillus sanfranciscensis (ATCC27651); test: microtitre plate dilution test, minimal inhibitory concentration; conditions: natural product isolated from Lactobacillus reuteri LTH 2584; growth inhibition versus controls; read-out: minimale inhibitorische Konzentration
Text: (§1) Das Wirkungsspektrum von Reutericyclin wurde mit Hilfe des Naturstoffes untersucht, der aus Lactobacillus reuteri LTH 2584 wie oben beschrieben isoliert wurde. Die antimikrobielle Aktivität wurde gegenüber einer Vielzahl unterschiedlicher Bakterien getestet. Hierfür wurden Verdünnungstest auf Mikrotiterplatten durchgeführt. Kulturen der verschiedenen Bakterien wurden mit Verdünnungen der erfindungsgemässen Verbindung behandelt und die Konzentration bestimmt, die eine Hemmung des Wachstums der Bakterien im Vergleich mit Kontrollen beobachten ließ.
(§2) Diese sogenannte minimale inhibitorische Konzentration wurde für das Bakterium Lactobacillus sanfranciscensis (ATCC27651) mit 0,1 +/-0,05 mg/l bestimmt.

L. curvatus (LTH1174) = test: microtitre plate dilution test, growth inhibition; conditions: compared with L. sanfranciscensis (MIC 0,1 +/-0,05 mg/l)
Text: as §1, §2

L. sakei (LTH673) = test: microtitre plate dilution test, growth inhibition; conditions: compared with L. sanfranciscensis (MIC 0,1 +/-0,05 mg/l)
Text: as §1, §2

[2] = tested on: Enterococcus Faecalis (DSM20409); test: microtitre plate dilution test, growth inhibition; conditions: natural product, read-out: Konzentration, die eine Hemmung des Wachstums der Bakterien bewirkte
Text: as §1
(§3) Einige humanpathogene Keime, wie beispielsweise Enterococcus Faecalis (DSM20409) erwies sich sogar noch als deutlich empfindlicher gegenüber Reutericyclin. Hier bewirkte eine Konzentration von etwa 0,05 mg/l eine Hemmung des Wachstums der Bakterien. […] Es war also keine Kreuzresistenz festzustellen.

[3] = tested on: Antibiotika-resistente klinische Isolate (Enterococcus Faecalis); test: microtitre plate dilution test, antibiotic-resistant clinical isolates; conditions: no cross-resistance found
Text: as §1, §3

Escherichia coli = test: microtitre plate dilution test, growth inhibition; conditions: Gram-negative bacteria; at the tested concentrations
Text: as §1

[4] = tested on: Listeria ivanovii (DSM20750); test: microtitre plate dilution test, growth inhibition; conditions: compared with Lactobacillus sanfranciscensis
Text: as §1

[5] = tested on: Staphylocokus aureus (SG511); test: microtitre plate dilution test, growth inhibition; conditions: compared with Lactobacillus sanfranciscensis
Text: as §1

Hefen = test: microtitre plate dilution test, growth inhibition; conditions: yeasts; at the tested concentrations
Bakterien = test: antibacterial activity of synthetic product compared with natural reutericyclin; conditions: relative to natural reutericyclin
Text: as §1
Dies liegt vermutlich daran, daß 6 im Gegensatz zum natürlichen Reutericyclin als Razemat vorliegt.

| Compound | MIC [1] [µg/mL] | Empfindlichkeit gegenüber Reutericyclin (L. curvatus (LTH1174)) | Empfindlichkeit gegenüber Reutericyclin (L. sakei (LTH673)) | MIC [2] [µg/mL] | Empfindlichkeit gegenüber Reutericyclin [3] | Empfindlichkeit gegenüber Reutericyclin (Escherichia coli) | Empfindlichkeit gegenüber Reutericyclin [4] | Empfindlichkeit gegenüber Reutericyclin [5] | Empfindlichkeit gegenüber Reutericyclin (Hefen) | Menge für gleiche Ergebnisse wie eine Menge des natürlichen Reutericyclins (Bakterien; as a rule) | antibakterielle Wirkung (Bakterien) |
| --- | --- | --- | --- | --- | --- | --- | --- | --- | --- | --- | --- |
| CCCCCCC/C=C/C(=O)N1C(O)=C(C(C)=O)C(=O)[C@H]1CC(C)C [Reutericyclin, 5R-1-(2-trans-Decenoyl)-3-acetyl-5-isobutyl-delta2-pyrrolin4-on] | 0.1 (≈ 0.286 µM) | sehr ähnliche Empfindlichkeiten | sehr ähnliche Empfindlichkeiten | ~0.05 (≈ 0.143 µM) | ebenfalls eine Empfindlichkeit | nicht empfindlich | in einer entsprechenden Größenordnung wie Lactobacillus sanfranciscensis | in einer entsprechenden Größenordnung wie Lactobacillus sanfranciscensis | nicht empfindlich | – | – |
| CCCCCCC/C=C/C(=O)N1C(O)=C(C(C)=O)C(=O)C1CC(C)C (racemic) [compound 6, N-trans-2-Decenoyl-3-acetyl-5-iso-butylpyrrolidin-2,4-dion] | – | – | – | – | – | – | – | – | – | doppelte Mengen | etwas schwächer |
